According to publication PMC9822400, “The Lipophilic Purine Nucleoside—Tdp1 Inhibitor—Enhances DNA Damage Induced by Topotecan In Vitro and Potentiates the Antitumor Effect of Topotecan In Vivo” (Molecules, 2022):
Entries after “also recorded” stand apart in the source; their conditions may differ.

Legend:
[1] = molecular target: T1, purified recombinant human Tdp1 (Homo sapiens, UniProt Q9NUW8); assay: Real-time detection of Tdp1 activity (removal of BHQ1 from a 5′-FAM 16-nt oligonucleotide, fluorescence); type: biochemical; details: 1.5 nM Tdp1, 50 nM oligonucleotide, 25 °C, three independent experiments
T1 construct: made in house
Protocol: In this work, four natural nucleosides (1-4) and […] aromatic lipophilic derivatives of purine nucleosides (5a-f, 6a-d) were tested for Tdp1 activity. The used test system was based on the enzyme’s ability to remove Black Hole Quencher 1 (BHQ1) from the 3′ end of a 5′ FAM 16-nt oligonucleotide. As a result, an increase in FAM fluorescence was detected and the obtained kinetic curves were used to calculate the IC50 parameter (the concentration of the inhibitor at which the enzyme activity is reduced by half). We have found potent Tdp1 inhibitors with IC50 in the range from 0.3 to 7 μM (Table 1).
Purified human recombinant Tdp1 was prepared as described earlier. Real-time detection of Tdp1 activity was reported in our previous work. The approach consists of a fluorescence intensity measurement of the reaction of quencher removal from the fluorophore-quencher coupled DNA oligonucleotide catalyzed by Tdp1 in the presence of the inhibitor (the control samples contained 1% DMSO). The biosensor was single-stranded oligonucleotide (5′-[FAM] AAC GTC AGGGTC TTC C [BHQ]-3′) containing fluorophore at the 5′ end (5,6-FAM) and a Black Hole Quencher 1 (BHQ) at the 3′ end, and was synthesized in the Laboratory of nucleic acid chemistry at the Institute of Chemical Biology and Fundamental Medicine SB RAS, Novosibirsk, Russia. The reactions were incubated at a constant temperature 25 °C in a POLARstar OPTIMA fluorimeter, BMG LABTECH, GmbH, to measure fluorescence every 55 s (Ex485/Em520 nm) during the linear phase (here, the data are from 0 to 8 min). […] The IC50 values were determined using a six-point concentration response curve in three independent experiments and calculated using MARS Data Analysis 2.0 (BMG LABTECH).

[2] = system: mice ascitic Krebs-2 carcinoma; assay: Antitumor effect of topotecan with compounds in vivo, ascitic Krebs-2 carcinoma model; details: C57Bl/6 mice; for Tumor mass (ascites weight) and number of tumor cells, combination with Tpc compared to only Tpc: Tpc 1 mg/kg + compound 100 mg/kg i/p once on day 4, 6d p = 0.0018
Text: The effect of compounds 5f, 6c and 6d on the effectiveness of Tpc was studied in vivo on a mice ascitic Krebs-2 carcinoma model. Krebs-2 carcinoma can be transplanted into mice of various genetic constitutions. […] This model combines the advantages of in vitro and in vivo approaches to study the cytotoxic effects of compounds, since ascites cells grow in the environment of the body (in vivo), and intraperitoneal administration of the drug ensures its direct contact with tumor cells (in vitro), bypassing absorption, delivery to the tumor, possible transformations, etc.
During the experiment, mice were injected intraperitoneally with 2 × 10^6 ascites cells, after that a liquid ascites tumor grew at the site of inoculation.
The effect of drugs on the tumor was assessed at the end of the experiment by the weight of the ascitic tumor (the difference in the weight of the mouse with the tumor and after tumor removal), as well as by the number of tumor cells in the ascites.
Three- to four-month-old male and female C57Bl/6 mice (19–21 g) from the breeding colony of the Institute of Cytology and Genetics, SB RAS, Novosibirsk, Russia, were used in the study. The animals were kept on sawdust in plastic cages of 5–7 mice per cage with free access to ground food (“Laboratorkorm”, Moscow, Russia) and tap water. All procedures with the mice were performed in accordance with the international rules for experiments on animals [European Communities Directive (86/609 EEC)].
The experimental tumor model was transplantable Krebs-2 carcinoma obtained from the cell depository of the Institute of Cytology and Genetics SB RAS (Novosibirsk, Russia) and was maintained in mice as a transplanted tumor. Krebs-2 was obtained from epithelial cells of the abdominal wall of a mouse. Krebs-2 carcinoma is nonspecific in its host requirements and can be grafted into mice with any genetic context. With intraperitoneal inoculation, it forms an ascites form.
The antitumor effect was assessed by the weight of the ascites and by the number of tumor cells in ascites. The weight of Krebs-2 ascites was assessed by the difference in the weight of mice before and after the removal of ascites. The number of tumor cells in ascites was determined using a hemocytometer Goryaev camera. In autopsied mice, the weights of liver, lung, heart, kidneys, and spleen were assessed as well as the tumor and body weights.
The animals were treated once in total dose of Tpc 1 mg/kg and Tdp1 inhibitor (5f, 6c or 6d) 100 mg/kg. We started the treatment on the fourth day after the tumor was inoculated, with the expectation that it had just begun to form. […] The animals were euthanized eight days after the transplantation and the compound effect on mice was evaluated by measuring the tumor weight and number of tumor cells in ascites.

[3] = Cell culture cytotoxicity assay (EZ4U colorimetric test); type: cell-based; details: human, HeLa cells
Text: Tdp1 inhibitors are intended to be used in therapeutic cocktails to sensitize tumors to the action of anticancer Top1 poisons. […] To assess the toxicity of the compounds, their effect on the survival of the HeLa cell line (human cervical cancer) was studied using the colorimetric test of metabolic activity of cells EZ4U, which reflects the survival of cells in the presence of the studied compounds. The EZ4U assay is based on the ability of living cells to reduce the colorless tetrazolium salt XTT [sodium 3,3′-{1-(phenylamino)-carbonyl-3,4-tetrazolium) -bis(4-methoxy-6-nitro)-benzene sulfonic acid hydrate] to an orange water-soluble formazan product. This method was used to investigate the intrinsic cytotoxicity of promising inhibitors discovered in the course of this work, as well as the toxicity of their combination with Tpc.
Cytotoxicity of the compounds was examined on human cell lines HeLa using an EZ4U colorimetric test (Biomedica, Vienna, Austria). The HeLa cell line was obtained from the Russian Cell Culture Collection (RCCC) Institute of Cytology RAS, St. Petersburg, Russia. The cells were grown in DMEM/F12 medium (Gibco, Thermo Fisher Scientific, Waltham, MA, USA), with 1x GlutaMAX (Gibco, Thermo Fisher Scientific, Waltham, MA, USA), 50 IU/mL penicillin, 50 μg/mL streptomycin (MP Biomedicals), and in the presence of 10% fetal bovine serum (Biolot, Saint-Petersburg, Russia) in a 5% CO2 atmosphere. Since lipophilic nucleosides are soluble in DMSO, cells were grown in the presence of 1% DMSO in the control wells. After the formation of a 30–50% monolayer, the tested compounds were added to the medium, and the cell culture was monitored for 3 days. The values were normalized to their own control in each case. At least three independent experiments were carried out. The 50% cytotoxic concentration (CC50) was defined as the compound concentration that reduced the cell viability by 50% when compared to the untreated controls. The CC50 value was determined using OriginPro 8.6.0 software (OriginLab, Northampton, MA, USA). The measurements were carried out in three independent experiments.

T1 sequence (Q9NUW8 whole entry): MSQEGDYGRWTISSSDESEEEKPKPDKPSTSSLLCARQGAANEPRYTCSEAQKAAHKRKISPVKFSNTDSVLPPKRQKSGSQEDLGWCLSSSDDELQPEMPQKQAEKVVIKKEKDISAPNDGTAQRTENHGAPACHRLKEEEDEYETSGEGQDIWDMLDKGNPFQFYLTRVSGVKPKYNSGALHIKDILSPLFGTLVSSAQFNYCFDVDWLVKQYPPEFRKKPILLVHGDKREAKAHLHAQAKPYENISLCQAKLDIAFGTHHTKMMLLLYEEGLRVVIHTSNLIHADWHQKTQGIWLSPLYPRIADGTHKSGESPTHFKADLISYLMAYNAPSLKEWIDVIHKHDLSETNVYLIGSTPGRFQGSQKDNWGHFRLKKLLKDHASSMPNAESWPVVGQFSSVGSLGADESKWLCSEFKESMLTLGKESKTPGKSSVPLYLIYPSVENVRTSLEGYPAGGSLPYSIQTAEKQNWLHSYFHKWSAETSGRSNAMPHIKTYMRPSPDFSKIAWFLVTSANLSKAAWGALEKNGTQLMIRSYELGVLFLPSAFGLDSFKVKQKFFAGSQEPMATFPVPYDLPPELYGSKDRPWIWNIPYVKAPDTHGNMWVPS

| Compound | IC50 [1] | Tumor mass (ascites weight) and number of tumor cells, combination with Tpc compared to only Tpc [2] | Tumor mass (ascites weight) and number of tumor cells, compound alone ([2]; compound 100 mg/kg i/p once on day 4, 100 mg/kg) | CC50 at 3 days [3] |
| --- | --- | --- | --- | --- |
| O=C(OC[C@H]1O[C@@H](n2cnc3c(Cl)nc(Cl)nc32)[C@H](OC(=O)c2ccccc2)[C@@H]1OC(=O)c1ccccc1)c1ccccc1 [compound 6d, 2,6-dichloro-9-(2,3,5-tri-O-benzoyl-β-D-ribofuranosyl)purine] | 820 ± 20 nM | significant decrease; also recorded: synergistic decrease of tumor size | did not affect this parameter; also recorded: did not affect tumor growth | 33000 ± 15000 nM |
| O=C(OC[C@H]1O[C@@H](n2cnc3c(Cl)nc(F)nc32)[C@H](OC(=O)c2ccccc2)[C@@H]1OC(=O)c1ccccc1)c1ccccc1 [compound 6c, 2-Fluoro-6-chloro-9-(2,3,5-tri-O-benzoyl-β-D-ribofuranosyl)purine] | 1000 ± 200 nM | did not obtain the sensitizing effect; also recorded: did not result in a reliable decrease | – | 35000 ± 20000 nM |
| O[C@@H]1[C@H](O)[C@@H](COC(c2ccccc2)(c2ccccc2)c2ccccc2)O[C@H]1n1cnc2c(NC(c3ccccc3)(c3ccccc3)c3ccccc3)ncnc21 [compound 5f] | 300 ± 60 nM | no sensitizing effect; also recorded: did not result in a reliable decrease | – | > 100000 nM |
